6 compounds from US20020156112A1, “Endostatin-like angiogenesis inhibition” (priority 2000, published 2002) can be followed below.

Common to all, as to format: binding
The nature of assay [1]: Biotin-streptavidin interaction, control colloids (Example 1). To be noted: same streptavidin concentrations; wells B1-B7. The protocol:
(§1) Gold colloids were prepared using a mixture of 10 μM biotin thiol, 10 μM NTA thiol, and 580 μM C11 thiol. Control colloids were prepared using 20 μM NTA thiol and 580 μM C11 thiol for a total thiol concentration of 600 μM. After deposition, the colloids were heat cycled in 400 μM EG3 thiol, and charged with nickel sulfate. A streptavidin stock solution (1 mg/mL) was prepared in 10 mM sodium phosphate buffer, 100 mM sodium chloride, pH 7.4 (buffer) To detect the biotin-streptavidin interaction, 60 μL buffer, 10 μL streptavidin, and 30 μL colloids, were mixed in a well of a 96-well plate. The plate was incubated at room temperature and observed for color change. At the three highest concentrations of streptavidin (0.1 mg/mL, 0.01 mg/mL, 0.001 mg/mL) the colloids presenting biotin turned blue (wells A1, A2, A3, FIG. 5). At lower concentrations of streptavidin, the wells containing biotin colloids remained pink (wells A4, A5, A6, A7). A similar experiment was performed using colloids presenting only the NTA group (wells B1-B7).
(§2) FIG. 5 is a digital photo of a colorimetric nanoparticle experiment in which gold colloids were derivatized with either biotin-SAMs (top row) or NTA-Ni-SAMs (bottom row). Streptavidin which has four binding sites for biotin, and thus will cross-link biotin-presenting colloids, was added free in solution. […]

The nature of assay [2]: Biotin-streptavidin interaction with gold colloids (Example 1). The protocol: as §1, §2
The subject of assay [3] is RGD-endostatin interaction. The assay is described as follows: Colloid colour-change drug screen for endostatin mimics via RGD/endostatin interaction (Example 8). The settings on record: 5 μL candidate drug at 2.9 mg/ml in DMSO; 4.75 ul of 0.1 mg/mL endostatin; room temperature, about 20 minutes. On the procedure: In yet another aspect of the invention, a high throughput drug screening assay is described that identifies endostatin mimics is described. Histidine-tagged peptides containing two tandem GRGDS motifs are immobilized, from a phosphate buffered saline solution, onto gold nanoparticles (called colloids) that have been derivatized with NTA-Ni-SAMs that capture histidine-tagged species. Endostatin, which is a dimer in its functional form, is added to the colloidal solution. Dimeric endostatin presents two binding sites that recognize GRGDS motif peptides. The binding of dimeric endostatin to two peptides attached to two different colloids, draws the colloids close together and causes the color of the gold colloid solution to change from pink to blue. Recall that colloidal gold appears pink when the particles are dispersed in a homogeneous solution, but the solution turns blue when the particles are aggregated, see FIG. 5. Drug candidates are added to the colloid-immobilized GRGDS motif peptides and endostatin solution. When a drug candidate effectively interrupts the endostatin—GRGDS motif peptide interaction, the solution remains pink. Recall that the drug candidates are monomeric and therefore, even if they bind to the GRGDS peptides, they cannot bring two colloids together, which would cause the solution color to change from the inherent pink, to blue, see FIG. 7.
60 uM NTA colloids presenting a His-tagged peptide containing […] RGD motifs (GRGDSGRGDS) were prepared by incubating 1 mL of colloids with 200 ul 100 uM His-RGD for ten minutes, pelleting the colloids to remove excess unbound peptide, and resuspending the colloids in PBS. Negative control colloids were prepared by substituting a random His-tagged peptide in place of the RGD peptide. 30 μL RGD-colloids (or random peptide-colloids for negative controls) were added to each well of a 96-well plate along with 60 ul PBS per well. 5 μL of a candidate drug at 2.9 mg/ml in DMSO was added to each well of the plate. Candidate drugs including L-histidine, D-cycloserine, quisqualic acid and suramin were assessed. (See FIGS. 1-4). DMSO was added in place of a drug to each of the positive and negative controls. 4.75 ul of 0.1 mg/mL endostatin was added to each well. The plate was incubated at room temperature and observed for color change. After about 20 minutes, the positive controls changed color from pink to blue as the endostatin bound to the RGD peptide. […] Drugs identified in this manner that bound to the RGD motif and inhibited binding of endostatin may be endostatin mimics and could be used as synthetic replacements of endostatin.

Assay [4] concerns the target T1, endostatin—GRGDS interaction (Homo sapiens, UniProt P39060).
T1 construct: purchased Calbiochem 324746
T1 sequence (P39060 1572-1754 limits assumed): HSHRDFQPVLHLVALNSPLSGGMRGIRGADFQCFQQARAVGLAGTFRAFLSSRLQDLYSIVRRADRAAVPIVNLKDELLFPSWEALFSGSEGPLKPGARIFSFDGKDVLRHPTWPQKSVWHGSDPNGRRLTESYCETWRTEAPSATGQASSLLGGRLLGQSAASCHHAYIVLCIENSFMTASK
Nature of the assay: Vitronectin competition in gold colloid colour-change assay (Example 6). On the procedure: 40 μM NTA gold colloids were prepared which presented the His-tagged RGD peptide (Sequence ID No.1, see Table 1). These colloids were mixed with endostatin (0.1 mg /mL) and turned blue, indicating binding of endostatin to the GRGDS peptide (A1, A2, FIG. 6). Control colloids presenting an irrelevant FLR-peptide (Sequence ID #2, see table 1) remained pink (wells A3, A4). At the highest concentration of vitronectin (0.1 mg /ml), the endostatin—GRGDS interaction is disrupted, and the well remains pink (B1). At lower concentrations of vitronectin, the endostatin—GRDS interaction is not affected and the wells turn blue (B2-B5).

As for “streptavidin: Streptavidin which has four binding sites for biotin, added free in solution”, the “colour of NTA-only control colloids” value in assay [1] is listed as “remained pink”. Further, the “colour of biotin colloids” value in assay [2] (lower concentrations of streptavidin, wells A4-A7) is given as “remained pink”; in assay [2] (three highest concentrations of streptavidin (0.1 mg/mL, 0.01 mg/mL, 0.001 mg/mL), wells A1-A3), “turned blue”. Regarding `N[C@@H](Cn1oc(=O)[nH]c1=O)C(=O)O` [quisqualic acid], the “disruption of RGD-endostatin interaction (well remains pink)” value in assay [3] was “disrupted the RGD-endostatin interaction”. Still for that read-out and setting: to `N[C@@H](Cc1c[nH]cn1)C(=O)O` [L-histidine] belongs “disrupted the RGD-endostatin interaction”; to `Cc1ccc(C(=O)Nc2ccc(S(=O)(=O)O)c3cc(S(=O)(=O)O)cc(S(=O)(=O)O)c23)cc1NC(=O)c1cccc(NC(=O)Nc2cccc(C(=O)Nc3cc(C(=O)Nc4ccc(S(=O)(=O)O)c5cc(S(=O)(=O)O)cc(S(=O)(=O)O)c45)ccc3C)c2)c1` [suramin], “disrupted the RGD-endostatin interaction”; to `N[C@@H]1CONC1=O` [D-cycloserine], “disrupted the RGD-endostatin interaction”. With “vitronectin: full-length vitronectin, a cell adhesion molecule containing the GRGDS motif”, the “effect on endostatin—GRGDS interaction” value in assay [4] (highest concentration of vitronectin (0.1 mg/ml), well B1) was “disrupted”; in assay [4] (lower concentrations of vitronectin, wells B2-B5), “not affected”.
